The results in this text go back to ChEMBL document CHEMBL1137556, “Synthetic studies of neoclerodane diterpenes from Salvia divinorum: exploration of the 1-position” (Bioorg Med Chem Lett, 2007).

For assay [1], the target named is T1, Kappa-type opioid receptor (Homo sapiens, UniProt P41145).
Description: Antagonist activity at human cloned kappa opioid receptor assessed as inhibition of U69,593-stimulated [35S]GTP-gamma-S binding
Assay [2] deals with T1, Kappa-type opioid receptor. This is another data set of the same source.
Description: Antagonist activity at human cloned kappa opioid receptor assessed as inhibition of DAMGO-stimulated [35S]GTP-gamma-S binding
For assay [3], the target named is Delta-type opioid receptor (Homo sapiens) (UniProt P41143).
Description: Antagonist activity at human cloned delta opioid receptor assessed as inhibition of DPDPE-stimulated [35S]GTPgammaS binding
In assay [4] the target is T1, Kappa-type opioid receptor. Description: Efficacy at human kappa opioid receptor by [35S]GTPgammaS binding assay relative to U69,593. The class given is functional.
Assay [5] concerns the target T1, Kappa-type opioid receptor. Description: Efficacy at human kappa opioid receptor assessed as inhibition of Galpha-16-induced calcium flux relative to U69,593. Type of assay: functional.
The target of assay [6] is T1, Kappa-type opioid receptor. Description: Agonist activity at human kappa opioid receptor assessed as inhibition of Galpha-16-induced calcium flux. Type of assay: functional.
Assay [7] deals with T1, Kappa-type opioid receptor. Description: Agonist activity at human kappa opioid receptor by [35S]GTPgammaS binding assay. The class given is functional.

Sequence of Delta-type opioid receptor (Homo sapiens) (P41143 whole entry): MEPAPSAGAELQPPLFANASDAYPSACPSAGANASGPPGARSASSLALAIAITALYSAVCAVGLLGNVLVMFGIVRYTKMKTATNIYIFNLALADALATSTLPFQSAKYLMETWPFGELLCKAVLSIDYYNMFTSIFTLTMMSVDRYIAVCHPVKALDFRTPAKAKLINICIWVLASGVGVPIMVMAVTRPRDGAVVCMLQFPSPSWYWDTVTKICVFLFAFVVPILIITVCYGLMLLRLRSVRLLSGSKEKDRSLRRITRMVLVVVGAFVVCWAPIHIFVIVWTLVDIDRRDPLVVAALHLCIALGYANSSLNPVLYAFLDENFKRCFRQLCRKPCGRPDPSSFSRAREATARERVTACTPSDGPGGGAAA
T1 sequence (P41145 whole entry): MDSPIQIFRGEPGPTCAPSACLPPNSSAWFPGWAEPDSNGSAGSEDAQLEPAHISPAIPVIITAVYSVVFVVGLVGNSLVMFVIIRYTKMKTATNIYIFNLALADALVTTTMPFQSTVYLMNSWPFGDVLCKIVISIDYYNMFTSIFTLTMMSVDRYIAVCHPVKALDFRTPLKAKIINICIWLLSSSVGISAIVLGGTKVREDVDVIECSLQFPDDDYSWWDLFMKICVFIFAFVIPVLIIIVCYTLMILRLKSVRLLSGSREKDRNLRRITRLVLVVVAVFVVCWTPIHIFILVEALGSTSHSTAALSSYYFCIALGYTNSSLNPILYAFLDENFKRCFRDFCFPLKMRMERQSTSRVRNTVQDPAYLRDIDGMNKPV

As for `COC(=O)[C@@H]1C[C@H](OC(C)=O)C=C2[C@@]1(C)CC[C@H]1C(=O)O[C@H](c3ccoc3)C[C@]21C`, the Ke worked out at 570 nM in assay [1], 200 nM in assay [2] and 400 nM in assay [3].
The matching figures for `COC(=O)[C@@H]1C[C@H](OC(=O)c2ccccc2)C[C@H]2[C@@]1(C)CC[C@H]1C(=O)O[C@H](c3ccoc3)C[C@]21C`: 580 nM, 4700 nM and 8780 nM.
As for `COC(=O)[C@@H]1C[C@H](OC(C)=O)C[C@H]2[C@@]1(C)CC[C@H]1C(=O)O[C@H](c3ccoc3)C[C@]21C`, the maximal response (Emax) is 49% in assay [4] and 93% in assay [5]. Further, the Ke in assay [2] worked out at 170 nM; in assay [3] it was 100 nM. Also, the EC50 turned out to be 3.34 nM in assay [6] and 280 nM in assay [7].
With `COC(=O)[C@@H]1C[C@H](OC(C)=O)[C@H](O)[C@H]2[C@@]1(C)CC[C@H]1C(=O)O[C@H](c3ccoc3)C[C@]21C`, the figures for the Ke in assay [1], in assay [2] and in assay [3] were 240 nM, 2300 nM and 1790 nM, respectively.
In assay [4], `COC(=O)[C@@H]1C[C@H](OC(C)=O)[C@H](OS(C)(=O)=O)[C@H]2[C@@]1(C)CC[C@H]1C(=O)O[C@H](c3ccoc3)C[C@]21C` [1-ALPHA-MESYLOXYSALVINORIN A] showed an Emax of 95%. The concentration for a half-maximal effect (EC50) in assay [7] was determined as 2700 nM.
In the case of `COC(=O)[C@@H]1C[C@H](OC(=O)c2ccccc2)[C@H](O)[C@H]2[C@@]1(C)CC[C@H]1C(=O)O[C@H](c3ccoc3)C[C@]21C`, the Ke was found to be 1050 nM in assay [1], 1830 nM in assay [2] and 2900 nM in assay [3].
The matching figures for `COC(=O)[C@@H]1CC(=O)C=C2[C@@]1(C)CC[C@H]1C(=O)O[C@H](c3ccoc3)C[C@]21C`: 460 nM, 700 nM and 3500 nM.
As to `COC(=O)[C@@H]1C[C@H](OC(=O)c2ccccc2)C=C2[C@@]1(C)CC[C@H]1C(=O)O[C@H](c3ccoc3)C[C@]21C`, the Ke worked out at 580 nM in assay [1], 1740 nM in assay [2] and 2300 nM in assay [3].
